PubChem BioAssay (NCI)
Where “and” joins values, the source holds several entries; their conditions need not be identical. Equal values may be shown once.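 Briefly, cells in 96-well plates were exposed to five compound concentrations for 48 h, and endpoints were estimated by linear interpolation. GI50 is the concentration that inhibits growth by half. TGI denotes the concentration required for complete inhibition of growth.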

Columns and labels:
Assay in all cases: NCI anticancer screen, dose series, 48 h
[1] = tested on: KM12 colon
[2] = tested on: OVCAR-8 ovarian
[3] = tested on: M14 melanoma
[4] = tested on: NCI-H522 lung
[5] = tested on: UO-31 renal
[6] = tested on: A498 renal
[7] = tested on: A549 NSCLC
[8] = tested on: NCI-H23 lung
[9] = tested on: HOP-18 NSCLC
[10] = tested on: SNB-78 CNS

| Structure (SMILES) | TGI [1] | TGI [2] | TGI [3] | TGI [4] | TGI [5] | TGI [6] | TGI [7] | TGI [8] | TGI [9] | TGI [10] | GI50 [1] | GI50 [2] | GI50 [3] | GI50 [4] | GI50 [5] | GI50 [6] | GI50 [7] | GI50 [8] | GI50 [9] | GI50 [10] |
| --- | --- | --- | --- | --- | --- | --- | --- | --- | --- | --- | --- | --- | --- | --- | --- | --- | --- | --- | --- | --- |
| CCc1ccccc1NC(=O)c1cccc([N+](=O)[O-])c1O | 48.6 µM | > 100 µM | > 100 µM | 62.6 µM | 71.6 µM | 88.2 µM | > 100 µM | 72.5 µM | > 100 µM | 94.2 µM | – | – | – | – | – | – | – | – | – | – |
| O=c1/c(=C/c2ccccc2[N+](=O)[O-])sc2nnc(-c3cccnc3)n12 | > 100 µM | > 100 µM | > 100 µM | – | > 100 µM | > 100 µM | > 100 µM | > 100 µM | > 100 µM | > 100 µM | – | – | – | – | – | – | – | – | – | – |
| COC1N(C2CC(O)C(CO)O2)C(=O)NC(=O)C1(F)Br (stereo unspecified) | 50 µM and > 100 µM | 50 µM and > 100 µM | 50 µM and > 100 µM | 50 µM and > 70 µM | > 100 µM | 50 µM and > 65 µM | 50 µM and > 100 µM | 50 µM and > 100 µM | > 50 µM | > 50 µM | 30.4 µM | 22.5 µM | 38.4 µM | 22.4 µM | > 50 µM | 0.821 µM | 3.22 µM | 13.3 µM | – | – |
| COc1cc([C@@H]2c3cc4c(cc3[C@@H](NC(=O)c3ccc(C#N)cc3)C3COC(=O)[C@@H]32)OCO4)cc(OC)c1O (stereo partly specified) | 3.2 µM | 6.38 µM | 12.4 µM | 2.39 µM | 15.3 µM | 3.79 µM | 1.64 µM | 0.837 µM | > 100 µM | 58.2 µM | – | – | – | – | – | – | – | – | – | – |
| O=C1NC(=O)c2c1n(Cc1ccccc1)c(=O)n2Cc1ccccc1 | > 100 µM | > 100 µM | > 100 µM | > 100 µM | > 100 µM | 77.9 µM | > 100 µM | > 100 µM | > 100 µM | > 100 µM | – | – | – | – | – | – | – | – | – | – |
| CCCCCCCC(=O)OCC(COC(=O)C(C)(C)C)OC(=O)Cc1ccccc1 (stereo unspecified) | – | > 100 µM | > 100 µM | – | > 100 µM | > 100 µM | > 100 µM | > 100 µM | > 100 µM | – | – | – | – | – | – | – | – | – | – | – |
| CCOC(=O)c1nc(C)oc1C(F)(F)F | > 100 µM | > 100 µM | > 100 µM | > 100 µM | > 100 µM | > 100 µM | > 100 µM | > 100 µM | – | > 100 µM | – | – | – | – | – | – | – | – | – | – |
| O=c1cc(O)cc2n1CCC2 | > 100 µM | > 100 µM | > 100 µM | > 100 µM | > 100 µM | > 100 µM | > 100 µM | – | – | > 100 µM | – | – | – | – | – | – | – | – | – | – |
| COc1nc2c(c(O)c(C)c(=O)n2OC2OCC(OC(C)=O)C(OC(C)=O)C2OC(C)=O)c(=O)n1C (stereo unspecified) | > 100 µM | > 100 µM | > 100 µM | > 100 µM | > 100 µM | – | > 100 µM | > 100 µM | – | > 100 µM | – | – | – | – | – | – | – | – | – | – |
| COC(=O)C1C(=O)O[C@@H](c2ccc3c(c2)OCO3)C1C(=O)OC (mixture of isomers) | > 100 µM | > 100 µM | > 100 µM | > 100 µM | > 100 µM | > 100 µM | > 100 µM | > 100 µM | – | > 100 µM | – | – | – | – | – | – | – | – | – | – |
| COc1cc(C)c(CC/C(C)=C/Cc2cc(O)ccc2O)c(C)c1C | > 25 µM | > 25 µM | > 25 µM | > 25 µM | > 25 µM | > 25 µM | > 25 µM | > 25 µM | > 25 µM | – | – | – | – | – | – | – | – | – | – | – |
| Cc1nc(N)nc(CCC(=O)Nc2cccc(C(F)(F)F)c2)c1-c1ccc(Cl)cc1 | > 100 µM | > 100 µM | > 100 µM | > 100 µM | > 100 µM | > 100 µM | > 100 µM | > 100 µM | > 100 µM | > 100 µM | – | – | – | – | – | – | – | – | – | – |
| Cc1ccc(S(=O)(=O)OCC/C(=C\[Si](C)(C)C)c2ccccc2)cc1 | > 100 µM | > 100 µM | > 100 µM | > 100 µM | > 100 µM | > 100 µM | > 100 µM | > 100 µM | > 100 µM | – | – | – | – | – | – | – | – | – | – | – |
| N#CC(C(=O)C(=O)Nc1c(Cl)cccc1Cl)c1ccccc1 (stereo unspecified) | > 100 µM | > 100 µM | > 100 µM | – | > 100 µM | > 100 µM | > 100 µM | > 100 µM | > 100 µM | > 100 µM | > 100 µM | – | > 100 µM | – | > 100 µM | > 100 µM | > 100 µM | > 100 µM | > 100 µM | > 100 µM |
| O=C(NC12CC3CCC1CC(C3)C2)[C@@H]1CCCN1C(=O)OCc1ccccc1 (stereo partly specified) | > 100 µM | > 100 µM | > 100 µM | > 100 µM | > 100 µM | > 100 µM | > 100 µM | > 100 µM | > 100 µM | > 100 µM | – | – | – | – | – | – | – | – | – | – |
| COC(=O)/C=C(/C(=O)OC)C1(C)c2cc(C(=O)OC)c(C(=O)OC)c(N)c2C(=N)N1c1ccccc1 (stereo unspecified) | 32.9 µM | 37.9 µM | 33.6 µM | 27.8 µM | 47.1 µM | 88.9 µM | > 100 µM | 45.6 µM | 62 µM | – | – | – | – | – | – | – | – | – | – | – |
| CN[C@@H](C)C(=O)N[C@H]1CN(S(=O)(=O)c2cccc(S(=O)(=O)N3CC[C@H]4CC[C@@H](C(=O)NC(c5ccccc5)c5ccccc5)N4C(=O)[C@@H](NC(=O)[C@H](C)NC)C3)c2)CC[C@H]2CC[C@@H](C(=O)NC(c3ccccc3)c3ccccc3)N2C1=O | 34.3 µM | 26.8 µM | > 100 µM | 34.8 µM | > 100 µM | > 67.7 µM | > 100 µM | 17.9 µM | – | – | 16.7 µM | 5.64 µM | 34.3 µM | 2.43 µM | > 73 µM | 32.6 µM | > 53.1 µM | 1.09 µM | – | – |
| CCN1C(=S)N(CC)C2C1NC(=S)N2/N=C/C=C/c1ccccc1OC (stereo unspecified) | 15.8 µM | > 41.2 µM | 0.575 µM | 1.19 µM | > 93 µM | 0.715 µM | > 100 µM | > 100 µM | – | – | 0.27 µM | 0.538 µM | 0.179 µM | 0.137 µM | 0.621 µM | 0.0831 µM | 0.503 µM | 0.466 µM | – | – |
| N#C/C(=C\c1cc(OCc2ccccc2)c(OCc2ccccc2)cn1)C(N)=O | > 100 µM | > 100 µM | > 100 µM | 41.2 µM | > 100 µM | > 100 µM | > 100 µM | > 100 µM | – | > 100 µM | – | – | – | – | – | – | – | – | – | – |
| O=[N+]([O-])c1ccccc1C1SCc2nc3ccccc3n21 (stereo unspecified) | > 100 µM | > 100 µM | – | > 100 µM | > 100 µM | > 100 µM | > 100 µM | > 100 µM | > 100 µM | – | – | – | – | – | – | – | – | – | – | – |
